Consider three compounds from patent US6541517B1, “Treatment of skin disorders” (priority 1999, dated 2003).

The conditions of data set [1]: water, alcohol, ether and chloroform; cited from earlier work.
For data set [2] the following is noted: Federal Register, vol. 47, 12553 (Mar. 23, 1982); cited from earlier work.
For data set [3], the system named is patients who presented with psoriatic lesions. Briefly: Topical treatment of psoriasis in outpatients. It counts as in vivo, human. As to conditions: applied as a topical, episodic treatment for psoriasis. On the procedure:
Eight patients who presented with psoriatic lesions were treated with the ointment of Example 1 on an outpatient basis. The ointment of Example 1 was applied to the psoriatic lesions up to four times per day.

Turning to `CC(=O)OCC(COC(C)=O)OC(C)=O` [Triacetin, 1,2,3-propanetriol triacetate], the miscibility entry in data set [1] was “miscible in water, alcohol, ether and chloroform”. Further, the “safety for topical use” value in data set [2] is reported as “safe for topical use”. The “effect on psoriatic lesions” value in data set [3] is listed as “improve psoriatic lesions”.
On to `CC(=O)OCC(CO)OC(C)=O` (centres unmarked) [diacetin, glycerol diacetate], for which, in data set [1], the miscibility entry is “miscible in water, alcohol, ether and chloroform”.
For `CC(=O)OCC(O)CO` (centres unmarked) [monacetin, glycerol monoacetate], the miscibility entry in data set [1] is “miscible in water, alcohol, ether and chloroform”.
